From US7414142B2 (Wyeth, priority 2005, dated 2008)
Where “and” joins values, the source holds several entries; their conditions need not be identical. Equal entries are not always repeated.

These molecules were tested on rat uterine decidualization (assay: Rat decidualization assay). Conditions: p.o.; half-maximal decrease in EC50 progesterone induced decidual response; individual Exp.
Assay type: in vivo
Description: C. […] The animals are treated once daily for seven days.
Uteri are removed and trimmed of fat.
Decidual response: [(D−C)/C]×100%

`CC#C[C@]1(O)CC[C@H]2[C@@H]3CCC4=CC(=O)CCC4=C3[C@@H](c3ccc(N(C)C)cc3)C[C@@]21C` [RU486] was tested, and the “Estimated IC50” value was 0.21 mg/kg and 0.14 mg/kg.

Same assay, conditions: s.c.; average of dose-response curves; rat decidual response

Point of comparison: `C#C[C@]1(O)CC[C@H]2[C@@H]3CCC4=CC(=O)CC[C@@H]4[C@H]3CC[C@@]21CC` [Levonorgestrel], “Estimated average EC50” value 0.10 mg/kg. Against it:
- C#C[C@]1(O)CC[C@H]2[C@@H]3CCC4=CC(=O)CC[C@@H]4[C@H]3C(=C)C[C@@]21CC [3-Ketodesogestrel] — the same, 0.10 mg/kg

What follows are molecules tested on T47D cells (assay: T47D cell proliferation assay (BrdU incorporation)). Conditions: half-maximal decrease in 0.1 trimegestone induced BrdU incorporation in T47D cells; individual Exp; read-out: EC50 (Estimated IC50).
Assay type: cell-based
Description: (a) Objective: Determination of progestational and antiprogestational potency by using a cell proliferation assay in T47D cells. A compound's effect on DNA synthesis in T47D cells is measured.
A. Reagents • (i) Growth medium: DMEM:F12 (1:1) (GIBCO, BRL) supplemented with 10% (v/v) fetal bovine serum (not heat-inactivated), 100U/mL penicillin, […] streptomycin, and 2 mM GlutaMax™ media (GIBCO, BRL). • (ii) Treatment medium: Minimum Essential Medium (MEM) (#51200-038GIBCO, BRL) phenol red-free supplemented with 0.5% charcoal stripped fetal bovine serum, 100U/mL penicillin, […] streptomycin, and 2 mM GlutaMax™ media (GIBCO, BRL).
B. Cell Culture • Stock T47 D cells are maintained in growth medium. […]
C. Cell Proliferation Assay • At the end of BrdU labeling, the medium is removed and BrdU incorporation is measured using a cell proliferation ELISA kit (#RPN 250, Amersham Life Science) according to manufacturer's instructions. […] L of 1 M sulfuric acid is added to each well to stop color reaction and optical density is read in a plate reader at 450 nm within 5 minutes.
D. Analysis of Results • Square root-transformed data are used for analysis of variance and nonlinear dose response curve fitting for both agonist and antagonist modes. […] EC50 or IC50 values are calculated from the retransformed values. […]

`CC#C[C@]1(O)CC[C@H]2[C@@H]3CCC4=CC(=O)CCC4=C3[C@@H](c3ccc(N(C)C)cc3)C[C@@]21C` [RU486] was tested, and the IC50 was 0.016 nM and 0.018 nM.

Same assay, conditions: half-maximal increase in BrdU incorporation in T47D cells; individual studies (Exp); read-out: Estimated EC50

In the case of `C[C@H](O)C(=O)[C@@]1(C)CC[C@H]2[C@@H]3CCC4=CC(=O)CCC4=C3CC[C@@]21C` [Trimegestone], the EC50 is reported as 0.017 nM and 0.014 nM and 0.019 nM.

What follows are molecules tested against T1, progesterone receptor (PR) (Homo sapiens, UniProt P06401) (assay: T47D cell alkaline phosphatase assay). Conditions: T47D; read-out: Alk. Phos. % inh @ 3 μM.
T1 construct: endogenous in cells; host or cells: T47D cells
T1 sequence (P06401 1-933): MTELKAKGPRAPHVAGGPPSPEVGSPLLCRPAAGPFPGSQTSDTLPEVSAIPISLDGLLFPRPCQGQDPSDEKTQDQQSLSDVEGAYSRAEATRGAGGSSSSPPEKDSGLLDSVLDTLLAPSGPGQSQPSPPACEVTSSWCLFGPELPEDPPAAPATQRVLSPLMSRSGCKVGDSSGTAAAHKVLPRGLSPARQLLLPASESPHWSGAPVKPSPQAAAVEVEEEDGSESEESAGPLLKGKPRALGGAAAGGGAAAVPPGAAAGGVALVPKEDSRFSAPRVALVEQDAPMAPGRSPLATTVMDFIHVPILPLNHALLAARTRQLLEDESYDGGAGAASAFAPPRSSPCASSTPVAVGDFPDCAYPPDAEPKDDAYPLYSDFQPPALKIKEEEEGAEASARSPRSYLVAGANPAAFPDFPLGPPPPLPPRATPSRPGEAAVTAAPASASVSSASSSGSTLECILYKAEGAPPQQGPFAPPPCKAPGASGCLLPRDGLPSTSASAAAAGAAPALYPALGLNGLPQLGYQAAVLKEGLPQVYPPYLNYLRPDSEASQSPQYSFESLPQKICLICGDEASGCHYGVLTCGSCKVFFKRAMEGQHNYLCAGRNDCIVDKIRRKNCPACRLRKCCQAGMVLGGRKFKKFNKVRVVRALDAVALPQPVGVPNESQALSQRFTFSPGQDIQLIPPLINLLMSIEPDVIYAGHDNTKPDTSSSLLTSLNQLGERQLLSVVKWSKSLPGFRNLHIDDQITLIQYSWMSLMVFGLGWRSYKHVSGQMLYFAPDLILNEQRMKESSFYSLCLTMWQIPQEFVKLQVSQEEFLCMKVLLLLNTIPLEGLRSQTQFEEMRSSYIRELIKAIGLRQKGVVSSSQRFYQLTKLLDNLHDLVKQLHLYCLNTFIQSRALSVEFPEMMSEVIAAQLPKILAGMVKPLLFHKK
Assay type: cell-based
Description: (i) Purpose: To identify progestins or antiprogestins by determining a compound's effect on alkaline phosphatase activity in T47D cells.
A. Reagents • (i) Culture Medium: • DMEM:F12 (1:1) (GIBCO, BRL) supplemented with 5% (v/v) charcoal stripped fetal bovine serum (not heat-inactivated), 100U/mL penicillin, […] streptomycin, and 2 mM the GlutaMax™ reagent (GIBCO, BRL). • (ii) Alkaline phosphatase assay buffer: • I. 0.1 M Tris-HCl, pH 9.8, containing 0.2% the Triton™ X-100 reagent; • II. 0.1 M Tris-HCl, pH 9.8 containing 4 mM p-nitrophenyl phosphate (Sigma).
B. Cell Culture and Treatment • Frozen T47D cells were thawed in a 37° C. water bath and diluted to 280,000 cells/mL in culture medium. To each well in a 96-well plate (Falcon, Becton Dickinson Labware), 180 ? L of diluted cell suspension was added. Twenty ? L of reference or test compounds diluted in the culture medium was then added to each well. […] The cells were incubated at 37° C. in a 5% CO2/humidified atmosphere for 24 hours. • Note: For high throughput screening, one concentration of each compound was tested at 0.3 mg/mL. Based on an average molecular weight of 300 g/mol for the compounds in the library, the concentration was approximately 1 mM.
C. Alkaline Phosphatase Enzyme Assay • At the end of treatment, the medium was removed from the plate. Fifty ? L of assay buffer I was added to each well. The plates were shaken in a titer plate shaker for 15 minutes. Then 150 ? L of assay buffer II was added to each well.
Square root-transformed data were used for analysis of variance and nonlinear dose response curve fitting for both agonist and antagonist modes. Huber weighting was used to downweight the effects of outliers. EC50 or IC50 values were calculated from the retransformed values. JMP software (SAS Institute, Inc.) was used for both one-way analysis of variance and non-linear dose response analyses in both single dose and dose response studies.

Point of comparison: `Cc1ccc(-c2ccc3c(c2)C(C)(C)C/C3=N\O)cc1` [Example 34, (1E)-3,3-dimethyl-5-(4-methylphenyl)indan-1-one oxime], inhibition at 3 µM 68%. Against it:
- CC1(C)C/C(=N\O)c2ccc(-c3ccc(Cl)cc3)cc21 [Example 33, (1E)-5-(4-chlorophenyl)-3,3-dimethylindan-1-one oxime] — higher, 100%
- COc1ccc(-c2ccc3c(c2)C(C)(C)C/C3=N\O)cc1 [Example 35, (1E)-5-(4-methoxyphenyl)-3,3-dimethylindan-1-one oxime] — lower, 63%
- CC1(C)C/C(=N\O)c2ccc(-c3cccc(Cl)c3)cc21 [Example 36, (1E)-5-(3-chlorophenyl)-3,3-dimethylindan-1-one oxime] — higher, 70%
- Cc1cccc(-c2ccc3c(c2)C(C)(C)C/C3=N\O)c1 [Example 37, (1E)-3,3-dimethyl-5-(3-methylphenyl)indan-1-one oxime] — lower, 65%
- COc1cccc(-c2ccc3c(c2)C(C)(C)C/C3=N\O)c1 [Example 38, (1E)-5-(3-methoxyphenyl)-3,3-dimethylindan-1-one oxime] — lower, 42%
- CC1(C)C/C(=N\O)c2ccc(-c3cc(Cl)cc(Cl)c3)cc21 [Example 39, (1E)-5-(3,5-dichlorophenyl)-3,3-dimethylindan-1-one oxime] — lower, 30%
- CC1(C)C/C(=N\O)c2ccc(-c3ccccc3Cl)cc21 [Example 40, (1E)-5-(2-chlorophenyl)-3,3-dimethylindan-1-one oxime] — lower, 62%
- CC1(C)C/C(=N\O)c2ccc(-c3cccc(Cl)c3Cl)cc21 [Example 42, (1E)-5-(2,3-dichlorophenyl)-3,3-dimethylindan-1-one oxime] — higher, 100%

Same assay, conditions: read-out: Alk. Phos. IC50

Point of comparison: `CC1C/C(=N\O)c2ccc(-c3ccc(C#N)n3C)cc21` (stereo not shown) [Example 3, 5-[(1E)-1-(hydroxyimino)-3-methyl-2,3-dihydro-1H-inden-5-yl]-1-methyl-1H-pyrrole-2-carbonitrile], IC50 65 nM. Against it:
- N#Cc1cccc(-c2ccc3c(c2)CC/C3=N\O)c1 [Example 6, 3-[(1E)-1-(hydroxyimino)-2,3-dihydro-1H-inden-5-yl]benzonitrile] — 46-fold higher, ~3000 nM
- N#Cc1ccc(-c2ccc3c(c2)CC/C3=N\O)cc1 [Example 7, 4-[(1E)-1-(hydroxyimino)-2,3-dihydro-1H-inden-5-yl]benzonitrile] — 15-fold higher, ~1000 nM
- Cn1c(C#N)ccc1-c1ccc2c(c1)CCC/C2=N\O [Example 15, 5-[(5E)-5-(hydroxyimino)-5,6,7,8-tetrahydronaphthalen-2-yl]-1-methyl-1H-pyrrole-2-carbonitrile] — 2-fold lower, 32.6 nM
- CC1(C)C/C(=N\O)c2ccc(-c3ccc(Cl)c(Cl)c3)cc21 [Example 41, (1E)-5-(3,4-dichlorophenyl)-3,3-dimethylindan-1-one oxime] — 7-fold higher, 456 nM
